Consider 9 compounds from patent US9139523B2, “5-HT2B receptor antagonists” (Janssen Pharmaceutica, NV, priority 2010, dated 2015).

Bounds are passed on as bounds.

One assay has as its target T1, 5HT2C (Homo sapiens, UniProt P28335).
T1 construct: expressed in transfected cells; host or cells: CHO (membrane fraction)
T1 sequence (P28335 33-458): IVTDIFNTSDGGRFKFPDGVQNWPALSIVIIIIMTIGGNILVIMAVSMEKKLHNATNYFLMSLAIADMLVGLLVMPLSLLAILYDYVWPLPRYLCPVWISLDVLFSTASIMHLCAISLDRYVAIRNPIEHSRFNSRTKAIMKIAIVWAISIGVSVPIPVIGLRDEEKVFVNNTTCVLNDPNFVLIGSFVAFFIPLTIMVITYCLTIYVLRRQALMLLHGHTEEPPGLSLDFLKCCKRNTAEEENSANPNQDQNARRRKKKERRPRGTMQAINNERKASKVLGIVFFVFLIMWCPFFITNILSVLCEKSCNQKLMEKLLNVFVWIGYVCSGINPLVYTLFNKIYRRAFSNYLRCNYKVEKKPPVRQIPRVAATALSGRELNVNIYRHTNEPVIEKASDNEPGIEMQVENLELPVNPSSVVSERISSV
The assay can be described thus: Competitive radioligand binding, 5HT2C. To be noted: CHO membranes, 3H-mesulergin 1 nM; read-out: pIC50 5HT2C (converted). The protocol: (§1) Competitive radioligand binding assays were used to determine the affinity of the test compounds for a particular receptor. Various concentrations of the non-labelled test compound were added to the incubation mixture with the membrane fraction, containing the receptor of interest, and a fixed low concentration (nM) of the radioligand. During the incubation the radioligand bound to the receptor, but this was inhibited by the non-labelled test compound in proportion to its binding affinity and concentration.
(§2) Cell lines were established that stably express the human variant of the receptor under investigation after transfection with the appropriate cDNA (Table 1). Transfected cells were grown under standard culture conditions, and membrane fractions were obtained upon centrifugation and homogenisation of the cells. Optimal membrane dilutions for binding studies were determined and aliquots were stored at −70° C. until use. In a 96-well plate format, the appropriate radioligand was added to the membrane preparation containing the receptor under investigation. Compound solutions were prepared in DMSO, and diluted 100-fold into the multiwell plate to a final test concentration of 10^−9 to 10^−5 M. After incubation with the test compound, the unbound radioligand was removed by filtration on G/F filters with a Filtermate 96. Microscint™ was added to the washed filter plates and the radioactivity bound to the receptor was measured by liquid scintillation counting in a TopCount (Packard). To measure the Non-Specific Binding (NSB), a high concentration of the non-radiolabeled ligand was added to wells containing the membrane fraction and the radioligand.
(§3) From this, the pIC50 value (inhibitory concentration causing 50% displacement of specific binding) was determined, as well as an estimate of the slope of the plot (Hill coefficient).

A further assay deals with T2, 5HT3A/B (Homo sapiens, UniProt O95264+P46098).
T2 construct: expressed in transfected cells; host or cells: HEK293 (membrane fraction)
T2 sequence (P46098 24-478): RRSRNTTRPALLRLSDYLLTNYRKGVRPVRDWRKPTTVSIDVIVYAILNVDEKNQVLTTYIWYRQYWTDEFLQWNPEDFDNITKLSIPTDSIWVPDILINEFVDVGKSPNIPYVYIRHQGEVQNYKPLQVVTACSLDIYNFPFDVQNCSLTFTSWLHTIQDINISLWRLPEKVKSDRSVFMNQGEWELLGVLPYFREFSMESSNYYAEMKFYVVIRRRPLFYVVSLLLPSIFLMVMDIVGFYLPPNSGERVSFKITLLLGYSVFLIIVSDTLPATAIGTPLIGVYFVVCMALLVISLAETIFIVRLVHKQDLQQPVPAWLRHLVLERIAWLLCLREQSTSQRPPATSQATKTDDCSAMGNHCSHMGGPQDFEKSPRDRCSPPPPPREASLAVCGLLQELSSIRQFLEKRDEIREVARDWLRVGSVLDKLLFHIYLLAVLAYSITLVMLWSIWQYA
T2 sequence (O95264 22-441): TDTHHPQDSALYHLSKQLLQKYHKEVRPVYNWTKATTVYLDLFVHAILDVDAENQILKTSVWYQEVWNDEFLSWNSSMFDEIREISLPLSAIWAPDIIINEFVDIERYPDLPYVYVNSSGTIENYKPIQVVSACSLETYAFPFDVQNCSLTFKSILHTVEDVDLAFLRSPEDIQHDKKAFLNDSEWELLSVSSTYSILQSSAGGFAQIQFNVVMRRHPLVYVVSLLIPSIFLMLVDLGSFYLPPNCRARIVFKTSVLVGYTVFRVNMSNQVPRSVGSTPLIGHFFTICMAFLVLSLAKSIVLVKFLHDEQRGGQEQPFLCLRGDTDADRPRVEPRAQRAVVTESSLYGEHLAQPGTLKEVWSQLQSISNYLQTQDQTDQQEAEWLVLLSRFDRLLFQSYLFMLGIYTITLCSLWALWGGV
The assay can be described thus: Competitive radioligand binding, 5HT3A/B. To be noted: HEK293 membranes, 3H-GR65630 0.5 nM; for IC50: read-out: pIC50 5HT3A/B (converted). The protocol: as §1, §2
Using in house developed software, a best-fit curve was fitted by a minimum sum of squares method to the plot of % inhibition vs. concentration of the test compound. From this, the pIC50 value (inhibitory concentration causing 50% displacement of specific binding) was determined, as well as an estimate of the slope of the plot (Hill coefficient).

The target in the next assay is T3, Alpha2C (Homo sapiens, UniProt P18825).
T3 construct: expressed in transfected cells; host or cells: CHO (membrane fraction)
T3 sequence (P18825 1-462): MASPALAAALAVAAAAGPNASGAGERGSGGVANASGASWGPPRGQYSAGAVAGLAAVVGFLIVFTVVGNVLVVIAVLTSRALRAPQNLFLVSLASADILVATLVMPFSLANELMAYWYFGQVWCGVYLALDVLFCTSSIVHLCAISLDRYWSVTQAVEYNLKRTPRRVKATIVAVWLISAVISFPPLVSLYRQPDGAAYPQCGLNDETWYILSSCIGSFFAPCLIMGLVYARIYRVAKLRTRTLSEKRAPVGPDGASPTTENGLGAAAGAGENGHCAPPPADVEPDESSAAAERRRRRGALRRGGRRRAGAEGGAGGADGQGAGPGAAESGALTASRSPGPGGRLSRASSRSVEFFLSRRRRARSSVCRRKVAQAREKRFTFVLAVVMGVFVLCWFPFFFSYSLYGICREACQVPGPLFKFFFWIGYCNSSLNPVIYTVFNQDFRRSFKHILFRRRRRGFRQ
Nature of the assay: Competitive radioligand binding, Alpha2C. Conditions: CHO membranes, 3H-rauwolscine 1 nM; for IC50: read-out: pIC50 Alpha2C (converted). The protocol:
as §1, §2, §3

A further assay addresses 5HT2B (Homo sapiens, UniProt P41595). Nature of the assay: Competitive radioligand binding, 5HT2B. The arrangement: expressed in transfected cells; host or cells: CHO (membrane fraction). To be noted: CHO membranes, 3H-5-HT 4 nM; read-out: pIC50 5HT2B (converted). The protocol: as §1, §2, §3

5HT2B, sequence (P41595 whole entry): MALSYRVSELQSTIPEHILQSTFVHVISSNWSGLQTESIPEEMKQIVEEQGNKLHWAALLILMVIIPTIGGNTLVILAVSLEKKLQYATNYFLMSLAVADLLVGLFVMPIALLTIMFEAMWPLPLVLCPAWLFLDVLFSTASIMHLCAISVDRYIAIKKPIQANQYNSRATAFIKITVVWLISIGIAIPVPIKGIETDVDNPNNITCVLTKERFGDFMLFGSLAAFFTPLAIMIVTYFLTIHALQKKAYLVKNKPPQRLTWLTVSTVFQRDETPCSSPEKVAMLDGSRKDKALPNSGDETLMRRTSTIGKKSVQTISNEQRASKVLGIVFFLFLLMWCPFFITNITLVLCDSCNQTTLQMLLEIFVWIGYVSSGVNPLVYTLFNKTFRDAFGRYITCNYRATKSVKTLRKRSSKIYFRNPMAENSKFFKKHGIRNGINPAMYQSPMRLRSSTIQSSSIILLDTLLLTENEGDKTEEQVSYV

As for `COc1cc(N)c(Cl)cc1C(=O)N[C@@H]1CCN(CCCOc2ccc(F)cc2)C[C@H]1F` (racemic) [(±)-7, trans-4-amino-5-chloro-N-{3-fluoro-1-[3-(4-fluorophenoxy)-propyl]-piperidin-4-yl}-2-methoxybenzamide], the IC50 was 1.82 µM at 5HT2C, over 10 µM at 5HT3A/B, 955 nM at Alpha2C and 107 nM on 5HT2B.
For `COc1cc(N)c(Cl)cc1C(=O)N[C@H]1CCN(CCCOc2ccc(F)cc2)C[C@H]1F` (racemic) [(±)-12, cis-4-amino-5-chloro-N-{3-fluoro-1-[3-(4-fluorophenoxy)-propyl]-piperidin-4-yl}-2-methoxybenzamide], in that order: 4.37 µM, 6.76 µM, 2090 nM and 66.1 nM.
For `COc1cc(N)c(Cl)cc1C(=O)NC1CCN(CCCOc2ccc(F)cc2)CC1(F)F` (racemic) [(±)-17, 4-amino-5-chloro-N-{3,3-difluoro-1-[3-(4-fluorophenoxy)-propyl]-piperidin-4-yl}-2-methoxybenzamide], in that order: 4.68 µM, over 10 µM, over 10000 nM and 13.8 nM.
As to `COc1cc(N)c(Cl)cc1C(=O)N[C@@H]1CCN(CCCOc2ccc(F)cc2)C[C@H]1F` (single isomer, unassigned) [(+)-7, trans-4-amino-5-chloro-N-{3-fluoro-1-[3-(4-fluorophenoxy)-propyl]-piperidin-4-yl}-2-methoxybenzamide], the IC50 on 5HT2C is 1.23 µM; on 5HT3A/B it was over 10 µM; on Alpha2C, over 10000 nM; at 5HT2B it was 129 nM.
For `COc1cc(N)c(Cl)cc1C(=O)N[C@H]1CCN(CCCOc2ccc(F)cc2)C[C@H]1F` (single isomer, unassigned) [(+)-12, cis-4-amino-5-chloro-N-{3-fluoro-1-[3-(4-fluorophenoxy)-propyl]-piperidin-4-yl}-2-methoxybenzamide] the same measures were 5.01 µM, over 10 µM, 1950 nM and 148 nM.
Regarding `COc1cc(N)c(Cl)cc1C(=O)N[C@@H]1CCN(CCCOc2ccc(F)cc2)C[C@H]1F` (single isomer, unassigned) [(−)-7, trans-4-amino-5-chloro-N-{3-fluoro-1-[3-(4-fluorophenoxy)-propyl]-piperidin-4-yl}-2-methoxybenzamide], the IC50 at 5HT2C was 3.72 µM; at Alpha2C it was 1170 nM; at 5HT2B, 251 nM. The “pIC50 5HT3A/B” value at 5HT3A/B was under 5.
Turning to `COc1cc(N)c(Cl)cc1C(=O)N[C@H]1CCN(CCCOc2ccc(F)cc2)C[C@H]1F` (single isomer, unassigned) [(−)-12, cis-4-amino-5-chloro-N-{3-fluoro-1-[3-(4-fluorophenoxy)-propyl]-piperidin-4-yl}-2-methoxybenzamide], the IC50 on 5HT2C was 6.61 µM; on 5HT3A/B it was 2.75 µM; on Alpha2C, 5890 nM; at 5HT2B, 72.4 nM.
With `COc1cc(N)c(Cl)cc1C(=O)NC1CCN(CCCOc2ccc(F)cc2)CC1(F)F` (single isomer, unassigned) [Compound (−)-17, 4-amino-5-chloro-N-{3,3-difluoro-1-[3-(4-fluorophenoxy)-propyl]-piperidin-4-yl}-2-methoxybenzamide], the IC50 is 6.61 µM on 5HT2C and 7.24 nM on 5HT2B. Besides, at 5HT3A/B, the “pIC50 5HT3A/B” value is on record as under 5. Besides, the “pIC50 Alpha2C” value on Alpha2C is given as under 5.
Turning to `COc1cc(N)c(Cl)cc1C(=O)NC1CCN(CCCOc2ccc(F)cc2)CC1(F)F` (single isomer, unassigned; (+)) [(+)-17, 4-amino-5-chloro-N-{3,3-difluoro-1-[3-(4-fluorophenoxy)-propyl]-piperidin-4-yl}-2-methoxybenzamide], the IC50 at 5HT2C is over 10 µM; at 5HT3A/B it was over 10 µM; on Alpha2C, over 10000 nM; on 5HT2B, 51.3 nM.
